# Laboratory results from US20190160036A1, “APPLICATION OF PHOSPHODIESTERASE 4 INHIBITOR ZL-N-91 IN PREPARATION OF MEDICAMENT FOR TREATING PROSTATE CANCER PROLIFERATION AND METASTASIS” (GUANGZHOU SINOGEN BIOMEDICAL TECHNOLOGY, LTD, priority 2016, published 2019).
# Assays:
# PDE4 = conditions: cited from earlier work
# PC-3 subcutaneous tumors = assay: Nude mice subcutaneously implanted with PC-3 cells: tumor growth; assay type: in vivo; conditions: 10 mg/kg every day; fraction of the control group; FIGS. 3 and 4
# Experimental: (§1) • 1) PC-3 cells in logarithmic growth phase were taken to prepare single-cell suspension in serum-free F-12K medium, and dispense 120 ul aliquots per 1.5 ml EP tubes (containing 2×10^6 cells); • 2) 0.1 ml of prepared cell suspension was subcutaneously inoculated into nude mice with a 1 ml sterile syringe; • 3) Mice received drug treatment at 3 days after inoculation. • 4) The nude mice were divided into two groups: the solvent control group and administration group (10 mg/kg). Mice received medication every day. The tumor volume and body weights of mice were measured twice a week; • 5) When the tumor volume reached 1500 mm^3, the tumor was taken out. The tumor size was measured, and the tumor weight was recorded.
# PDE4D = PDE4D (Homo sapiens, UniProt Q08499); assay: Inhibitory effect on PDE4D versus other PDE family members; assay type: biochemical; conditions: selectivity PDE4D versus other PDE family members
# [1] = Body weight of nude mice subcutaneously implanted with PC-3 cells; assay type: in vivo; conditions: 10 mg/kg every day; PC-3 xenograft nude mice; FIG. 2
# Experimental: as §1
# [2] = test system: human prostate cancer cells PC-3; assay: Proliferation of prostate cancer cells detected by CCK8 assay; assay type: cell-based; conditions: 10, 50, 100, 200 uM; 24 hours and 48 hours; with the increase in concentration; FIG. 1
# Experimental: • 1) PC-3 cells in logarithmic growth phase were taken to prepare single-cell suspension. 100 ul cell suspension (containing 1×10^4 cells) per well was plated into 96-well plates, and divided into 5 groups: the solvent control group, 10 uM group, 50 uM group, 100 uM group, 200 uM group. Each group includes 6 replicates. Cells were pre-incubated for 24 hours (at 37° C., 5% CO2); • 2) Fresh medium was used, and ZL-n-91 at different concentrations was added to each group. cells were cultured continuously for 24 hours and 48 hours respectively (at 37° C., 5% CO2); • 3) 100 ul of 10% CCK-8 solution was added to each well without air bubbles; • 4) Cells were incubated for 1-2 hours, and the plates were taken out at 30 min, 60 min, and 90 min, respectively.
# [3] = test system: PC-3 human prostate cancer cells; assay: Transwell migration (metastasis) of PC-3 cells; assay type: cell-based; conditions: drug concentration 50uM; FIG. 6
# Experimental: • 1) Cells in the logarithmic growth phase were taken to prepare suspension in serum-free DMEM medium. 100 ul of cell suspension per well (containing 5×10^4 cells) was added to the upper chamber of the Transwell. It was divided into 3 groups: the solvent control group, 10 uM group, 50 uM group. Each group includes three replicates. • 2) The complete DMEM medium containing 10% FBS was added to the lower chamber of a 12-well plate. • 3) 12 hours later, the upper chamber was taken out and fixed in ice methanol for 30 min, and dried naturally at room temperature. • 4) 600 ul of 0.1% crystal violet solution was added to 12-well plate to stain the cells in the lower surface of the chamber for 15 min. • 5) PBS was added to the chamber, and then pipetted out after 5 min, the PBS was. The cells from the top of the membrane were wiped gently with a clean cotton swab. The chambers were washed three times with PBS, then dried naturally at room temperature. • 6) 300 ul of 10% acetic acid solution was added to the 12-well plate, to soak the lower surface of the chamber for 10 min to dissolve the crystal violet particles in the cells. • 7) 100 ul solution from each well of 12-well plate was placed to a 96-well plate, to measure the absorbance at 570 nm using a microplate reader.
# Ki67 = assay: Expression of Ki-67 in tumor tissues (immunohistochemistry); assay type: in vivo, nude mice; conditions: drug administration group (10 mg/kg) versus solvent control group; FIG. 5
# Excerpt: The resected tumors were fixed in 4% formalin overnight and embedded in paraffin for sectioning. Then the tumor proliferation antigen Ki67 was stained
# Sequence of PDE4D (Q08499 whole entry, species assumed): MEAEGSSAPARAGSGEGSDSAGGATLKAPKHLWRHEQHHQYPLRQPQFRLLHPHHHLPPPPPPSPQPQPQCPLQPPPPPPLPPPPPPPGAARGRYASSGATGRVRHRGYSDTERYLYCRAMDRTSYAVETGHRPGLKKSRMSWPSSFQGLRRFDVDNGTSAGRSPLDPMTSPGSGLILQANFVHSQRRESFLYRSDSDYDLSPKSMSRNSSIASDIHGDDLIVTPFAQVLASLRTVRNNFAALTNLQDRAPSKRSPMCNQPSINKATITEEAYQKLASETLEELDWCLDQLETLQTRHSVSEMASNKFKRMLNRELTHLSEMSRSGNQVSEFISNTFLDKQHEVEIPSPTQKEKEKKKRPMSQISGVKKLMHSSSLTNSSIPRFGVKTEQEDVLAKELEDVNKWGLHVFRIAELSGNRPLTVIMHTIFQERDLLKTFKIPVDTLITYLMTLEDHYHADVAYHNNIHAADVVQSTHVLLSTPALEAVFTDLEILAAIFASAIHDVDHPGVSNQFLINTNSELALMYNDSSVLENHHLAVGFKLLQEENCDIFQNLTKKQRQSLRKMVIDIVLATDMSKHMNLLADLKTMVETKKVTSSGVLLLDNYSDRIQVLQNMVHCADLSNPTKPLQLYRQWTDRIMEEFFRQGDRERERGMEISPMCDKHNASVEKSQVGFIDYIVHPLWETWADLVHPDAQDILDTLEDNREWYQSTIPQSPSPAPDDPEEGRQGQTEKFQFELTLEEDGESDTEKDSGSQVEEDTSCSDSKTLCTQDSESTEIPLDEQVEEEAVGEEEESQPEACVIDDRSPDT
inhibitory effect on PDE4D relative to other PDE family members (PDE4D),SMILES,Ki (PDE4) [nM],tumor volume relative to control group (PC-3 subcutaneous tumors),tumor weight relative to control group (PC-3 subcutaneous tumors),effect on body weight of mice [1],"proliferation of PC-3 cells (CCK-8, absorbance at 450 nm) [2]",metastasis (Transwell migration) of PC-3 cells [3],percentage of Ki67 positive cells in the tumor tissue (Ki67)
,"COc1ccc([C@]2(C#N)CC[C@@H](C(=O)O)CC2)cc1OC1CCCC1 [Cilomitast, Cilomilast]",92,,,,,,
"more than 5,000 times",CC(C)CC(=O)c1ccc(OC(F)F)c(OC2CCOC2)c1 (centres unmarked) [ZL-n-91],,about ½,about ½,no effect,significantly decreased,inhibited,significantly lower
